From US7928140B2, “Benzothiazole PI3 kinase modulators for cancer treatment” (Amgen Inc., priority 2007, dated 2011)
Where two headings read alike, the source gives them in different places.

Columns and labels:
PI3K α = biological target: T1, PI3K α (Homo sapiens, UniProt P42336); assay: In vitro PI3 kinase enzyme assay (alpha), ATP loss, bioluminescence; assay type: biochemical; conditions: read-out: PI3Kα ATP loss IC50;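 also: purified p110α/p85 heterodimer acting on PtdIns(4,5)P2 at room temperature, remaining ATP read by luminescence, inhibition scaled between compound-free wells with and without enzyme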
T1 construct: Full length p110 subunits of PI3K α, β and δ, N-terminally labeled with polyHis tag; polyHis (N); made in house; host or cells: Sf9 insect cells (baculovirus)
T1 sequence (P42336 whole entry, species assumed): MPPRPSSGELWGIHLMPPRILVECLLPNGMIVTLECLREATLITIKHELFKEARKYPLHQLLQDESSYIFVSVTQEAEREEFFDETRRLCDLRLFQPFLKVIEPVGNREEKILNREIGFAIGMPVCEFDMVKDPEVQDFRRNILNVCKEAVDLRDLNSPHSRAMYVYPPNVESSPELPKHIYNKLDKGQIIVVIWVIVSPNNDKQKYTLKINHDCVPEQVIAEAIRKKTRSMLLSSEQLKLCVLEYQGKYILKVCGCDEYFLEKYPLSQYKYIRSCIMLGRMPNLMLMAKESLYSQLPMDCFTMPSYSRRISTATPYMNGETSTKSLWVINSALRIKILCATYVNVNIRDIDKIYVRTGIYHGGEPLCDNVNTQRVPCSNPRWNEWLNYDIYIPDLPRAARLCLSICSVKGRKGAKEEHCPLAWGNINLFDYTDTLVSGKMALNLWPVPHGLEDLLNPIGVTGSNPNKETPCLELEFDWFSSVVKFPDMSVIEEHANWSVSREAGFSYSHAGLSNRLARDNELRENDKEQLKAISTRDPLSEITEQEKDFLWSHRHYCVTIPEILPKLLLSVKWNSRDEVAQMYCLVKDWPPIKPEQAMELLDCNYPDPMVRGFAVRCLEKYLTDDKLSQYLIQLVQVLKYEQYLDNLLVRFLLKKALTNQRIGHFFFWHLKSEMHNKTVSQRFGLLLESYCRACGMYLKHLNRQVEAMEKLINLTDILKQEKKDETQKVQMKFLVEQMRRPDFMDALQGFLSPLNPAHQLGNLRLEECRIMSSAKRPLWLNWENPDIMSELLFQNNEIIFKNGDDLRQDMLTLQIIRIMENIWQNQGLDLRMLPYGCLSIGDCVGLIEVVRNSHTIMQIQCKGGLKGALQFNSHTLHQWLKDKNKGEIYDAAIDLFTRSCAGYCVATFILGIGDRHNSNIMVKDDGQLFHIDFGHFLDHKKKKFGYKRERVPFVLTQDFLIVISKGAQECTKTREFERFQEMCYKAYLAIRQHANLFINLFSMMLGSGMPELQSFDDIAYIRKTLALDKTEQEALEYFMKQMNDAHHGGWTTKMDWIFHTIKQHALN
T1 sequence (P27986 whole entry partner, species assumed): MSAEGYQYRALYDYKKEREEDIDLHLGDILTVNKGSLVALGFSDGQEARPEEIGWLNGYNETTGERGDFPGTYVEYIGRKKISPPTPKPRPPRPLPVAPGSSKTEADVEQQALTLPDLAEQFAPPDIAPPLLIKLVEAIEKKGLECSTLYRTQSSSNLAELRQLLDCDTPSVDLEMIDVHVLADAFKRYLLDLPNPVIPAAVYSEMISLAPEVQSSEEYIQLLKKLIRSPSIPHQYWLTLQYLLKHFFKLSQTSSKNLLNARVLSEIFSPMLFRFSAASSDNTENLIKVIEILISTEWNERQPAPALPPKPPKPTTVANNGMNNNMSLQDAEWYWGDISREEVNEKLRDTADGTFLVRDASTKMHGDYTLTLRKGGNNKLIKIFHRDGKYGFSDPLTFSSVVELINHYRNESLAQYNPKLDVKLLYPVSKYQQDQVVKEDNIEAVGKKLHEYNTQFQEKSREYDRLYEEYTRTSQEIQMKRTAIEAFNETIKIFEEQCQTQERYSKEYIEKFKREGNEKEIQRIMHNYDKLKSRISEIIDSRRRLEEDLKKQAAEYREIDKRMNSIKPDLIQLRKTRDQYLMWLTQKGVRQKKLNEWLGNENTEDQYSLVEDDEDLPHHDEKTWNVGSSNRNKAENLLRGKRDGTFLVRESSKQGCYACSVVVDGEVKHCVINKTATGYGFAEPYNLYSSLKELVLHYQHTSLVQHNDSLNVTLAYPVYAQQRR

[1] = test system: phosphorylation of Serine 473 in Akt, HCT 116 human colon carcinoma cells; assay: Cell-based phospho-AKT Ser473 assay (MSD sandwich immunoassay, IGF-1 stimulated); conditions: Homo sapiens
Outline: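 HCT116 cells, 16,000/well and plated overnight, were pre-treated with serially diluted compound for 2 h at 37 °C, then stimulated with IGF-1 at 100 ng/ml for 15 min. Lysates were assayed for Akt pSer473 by MSD sandwich electrochemiluminescence, and IC50 was derived from dose-response data.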

PI3K β = biological target: T2, PI3K β (Homo sapiens, UniProt P42338); assay: In vitro PI3 kinase enzyme assay (beta), ATP loss, bioluminescence; assay type: biochemical; conditions: read-out: PI3Kβ ATP loss IC50;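 also: purified p110β/p85 heterodimer with PtdIns(4,5)P2 as acceptor, incubated at room temperature, leftover ATP read by luminescence, inhibition scaled to compound-free wells with and without enzyme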
T2 construct: Full length p110 subunits of PI3K α, β and δ, N-terminally labeled with polyHis tag; polyHis (N); made in house; host or cells: Sf9 insect cells (baculovirus)
T2 sequence (P42338 whole entry): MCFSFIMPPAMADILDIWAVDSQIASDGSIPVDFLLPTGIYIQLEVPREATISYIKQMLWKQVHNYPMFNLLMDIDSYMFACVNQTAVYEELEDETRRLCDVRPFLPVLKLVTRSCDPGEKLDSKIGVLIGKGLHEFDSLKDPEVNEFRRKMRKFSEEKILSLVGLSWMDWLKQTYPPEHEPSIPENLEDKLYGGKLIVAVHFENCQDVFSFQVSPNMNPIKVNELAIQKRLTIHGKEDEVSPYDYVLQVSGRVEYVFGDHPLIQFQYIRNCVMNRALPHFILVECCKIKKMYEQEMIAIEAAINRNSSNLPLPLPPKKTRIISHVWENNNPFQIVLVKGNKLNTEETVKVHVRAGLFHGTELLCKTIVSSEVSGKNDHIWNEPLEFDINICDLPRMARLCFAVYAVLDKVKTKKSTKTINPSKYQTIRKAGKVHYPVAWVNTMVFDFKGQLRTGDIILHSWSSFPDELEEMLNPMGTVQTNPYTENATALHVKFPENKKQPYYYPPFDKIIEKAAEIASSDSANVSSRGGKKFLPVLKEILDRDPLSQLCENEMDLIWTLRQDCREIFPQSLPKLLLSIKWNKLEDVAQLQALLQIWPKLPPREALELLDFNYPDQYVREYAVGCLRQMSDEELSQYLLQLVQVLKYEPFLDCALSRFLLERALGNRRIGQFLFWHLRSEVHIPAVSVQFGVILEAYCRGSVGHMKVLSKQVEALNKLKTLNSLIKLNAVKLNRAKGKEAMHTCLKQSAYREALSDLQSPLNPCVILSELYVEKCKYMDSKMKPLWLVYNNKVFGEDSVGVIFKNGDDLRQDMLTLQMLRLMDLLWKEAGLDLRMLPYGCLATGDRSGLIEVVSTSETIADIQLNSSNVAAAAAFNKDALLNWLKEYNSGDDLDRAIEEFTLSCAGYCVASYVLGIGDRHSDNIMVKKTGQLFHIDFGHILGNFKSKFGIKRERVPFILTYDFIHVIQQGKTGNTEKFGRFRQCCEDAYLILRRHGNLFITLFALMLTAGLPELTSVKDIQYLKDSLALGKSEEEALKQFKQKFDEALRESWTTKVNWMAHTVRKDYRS
T2 sequence (P27986 whole entry partner): as the sequence (P27986 whole entry partner, species assumed) above

[2] = HCT-116, HCT 116 cells, read-out: HCT 116 pAKT IC50

Row | Compound | IC50 (PI3K α) | IC50 [1, 2] | IC50 (PI3K β) | IC50 ([1]; HCT-116, read-out: HCT 116 pAKT IC50)
1 | CC(=O)Nc1nc2ccc(-c3cnc(C)c(NS(=O)(=O)c4cccc(C(F)(F)F)c4)c3)cc2s1 [Example 113, N-(6-(6-methyl-5-(((3-(trifluoromethyl)phenyl)sulfonyl)amino)-3-pyridinyl)-1,3-benzothiazol-2-yl)acetamide] | 6.4 nM | 6.7 nM | 13 nM | –
2 | CC(=O)Nc1nc2ccc(-c3cnc(C)c(NS(=O)(=O)c4cccc(OC(F)F)c4)c3)cc2s1 [Example 115, N-(6-(5-(((3-(difluoromethoxy)phenyl)sulfonyl)amino)-6-methyl-3-pyridinyl)-1,3-benzothiazol-2-yl)acetamide] | 7.1 nM | 30.7 nM | 15 nM | –
3 | CC(=O)Nc1nc2c(F)cc(-c3cncc(NS(=O)(=O)c4ccc(C(F)(F)F)cc4)c3)cc2s1 [Example 117, N-(4-fluoro-6-(5-(4-(trifluoromethyl)phenylsulfonamido)pyridin-3-yl)benzo[d]thiazol-2-yl)acetamide] | 7.7 nM | – | 55.8 nM | 301 nM
4 | CC(=O)Nc1nc2ccc(-c3cnc(Cl)c(NS(=O)(=O)c4ccc(C(C)=O)cc4)c3)cc2s1 [Example 119, N-(6-(5-(((4-acetylphenyl)sulfonyl)amino)-6-chloro-3-pyridinyl)-1,3-benzothiazol-2-yl)acetamide] | 12.3 nM | 34.5 nM | 13.5 nM | –
5 | CC(=O)Nc1nc2ccc(-c3cncc(S(=O)(=O)c4ccccc4F)n3)cc2s1 [Example 121, N-(6-(6-((2-fluorophenyl)sulfonyl)-2-pyrazinyl)-1,3-benzothiazol-2-yl)acetamide] | 19.1 nM | 190 nM | 496 nM | –
6 | COc1ncc(-c2ccc3nc(NC(C)=O)sc3c2)cc1N(C)C [Example 124, N-(6-(5-(dimethylamino)-6-methoxy-3-pyridinyl)-1,3-benzothiazol-2-yl)acetamide] | 24.7 nM | 66.6 nM | 90.8 nM | –
7 | CC(=O)Nc1nc2ccc(-c3cncc(N(C)S(=O)(=O)c4ccc(C)cc4)n3)cc2s1 [Example 127, N-(6-(6-(methyl((4-methylphenyl)sulfonyl)amino)-2-pyrazinyl)-1,3-benzothiazol-2-yl)acetamide] | 27.8 nM | 58.1 nM | 31.6 nM | –
8 | COc1ccc(S(=O)(=O)Nc2nccc(-c3cc(F)c4nc(NC(C)=O)sc4c3)n2)cc1 [Example 131, N-(4-fluoro-6-(2-(((4-methoxyphenyl)sulfonyl)amino)-4-pyrimidinyl)-1,3-benzothiazol-2-yl)acetamide] | 41.3 nM | 1800 nM | 126 nM | –
9 | CC(=O)Nc1nc2ccc(-c3cnc(Cl)c(NC(C)C)c3)cc2s1 [Example 132, N-(6-(6-chloro-5-((1-methylethyl)amino)-3-pyridinyl)-1,3-benzothiazol-2-yl)acetamide] | 41.4 nM | 316 nM | 379 nM | –
10 | CC(=O)Nc1nc2ccc(-c3cncc(OCc4ccccc4)n3)cc2s1 [Example 135, N-(6-(6-(benzyloxy)-2-pyrazinyl)-1,3-benzothiazol-2-yl)acetamide] | 54.2 nM | 1970 nM | 219 nM | –
11 | CC(=O)Nc1nc2ccc(-c3cccc(NS(=O)(=O)c4ccc(C)cc4)c3)nc2s1 [Example 136, N-(5-(3-(4-methylphenylsulfonamido)phenyl)thiazolo[5,4-b]pyridin-2-yl)acetamide] | 58.6 nM | 172 nM | 199 nM | –
12 | CC(=O)Nc1nc2c(F)cc(-c3cccc(S(=O)(=O)c4ccccc4F)n3)cc2s1 [Example 137, N-(4-fluoro-6-(6-((2-fluorophenyl)sulfonyl)-2-pyridinyl)-1,3-benzothiazol-2-yl)acetamide] | 65 nM | 901 nM | 1140 nM | –
13 | CC(C)Nc1cc(-c2ccc3nc(NC(=O)Cc4ccccn4)sc3c2)cnc1Cl [Example 141, N-(6-(6-chloro-5-(isopropylamino)pyridin-3-yl)benzo[d]thiazol-2-yl)-2-(pyridin-2-yl)acetamide] | 95.4 nM | 850 nM | 846 nM | –
14 | COc1ccc(S(=O)(=O)N(C)c2nccc(-c3cc(F)c4nc(NC(C)=O)sc4c3)n2)cc1 [Example 143, N-(4-fluoro-6-(2-(((4-methoxyphenyl)sulfonyl)(methyl)amino)-4-pyrimidinyl)-1,3-benzothiazol-2-yl)acetamide] | 111 nM | 328 nM | 109 nM | –

The remaining compounds from weak to strong by IC50 (PI3K α), led by results:

Row | IC50 (PI3K α) | IC50 [1, 2] | IC50 (PI3K β) | Compound | IC50 ([1]; HCT-116, read-out: HCT 116 pAKT IC50)
15 | 47 nM | 1220 nM | 668 nM | CC(=O)Nc1nc2ccc(-c3ccnc(Sc4ccccc4Br)n3)cc2s1 [Example 134, N-(6-(2-((2-bromophenyl)sulfanyl)-4-pyrimidinyl)-1,3-benzothiazol-2-yl)acetamide] | –
16 | 41.5 nM | 1230 nM | 75.4 nM | COc1ccc(Sc2cncc(-c3ccc4nc(NC(C)=O)sc4c3)n2)cc1 [Example 133, N-(6-(6-((4-methoxyphenyl)sulfanyl)-2-pyrazinyl)-1,3-benzothiazol-2-yl)acetamide] | –
17 | 39 nM | 442 nM | 65 nM | CC(=O)Nc1nc2ccc(-c3cncc(Sc4ccccc4F)n3)cc2s1 [Example 130, N-(6-(6-((2-fluorophenyl)sulfanyl)-2-pyrazinyl)-1,3-benzothiazol-2-yl)acetamide] | –
18 | 38.3 nM | 978 nM | 477 nM | CC(=O)Nc1nc2ccc(-c3ccnc(Sc4c(C)cccc4C)n3)cc2s1 [Example 129, N-(6-(2-((2,6-dimethylphenyl)sulfanyl)-4-pyrimidinyl)-1,3-benzothiazol-2-yl)acetamide] | –
19 | 27.1 nM | 80.6 nM | 321 nM | COc1ccc(S(=O)(=O)N(C)c2cncc(-c3ccc4nc(NC(C)=O)sc4c3)n2)cc1 [Example 126, N-(6-(6-(((4-methoxyphenyl)sulfonyl)(methyl)amino)-2-pyrazinyl)-1,3-benzothiazol-2-yl)acetamide] | –
20 | 25.4 nM | 548 nM | 425 nM | CC(=O)Nc1nc2ccc(-c3ccnc(Sc4ccccc4Cl)n3)cc2s1 [Example 125, N-(6-(2-((2-chlorophenyl)sulfanyl)-4-pyrimidinyl)-1,3-benzothiazol-2-yl)acetamide] | –
21 | 16.4 nM | 332 nM | 1070 nM | COc1ccc(S(=O)(=O)c2cncc(-c3ccc4nc(NC(C)=O)sc4c3)n2)cc1 [Example 120, N-(6-(6-((4-methoxyphenyl)sulfonyl)-2-pyrazinyl)-1,3-benzothiazol-2-yl)acetamide] | –
22 | 7 nM | 14.4 nM | 8.9 nM | CC(=O)Nc1nc2ccc(-c3cnc(C)c(NS(=O)(=O)c4ccc(C(C)(C)C)cc4)c3)cc2s1 [Example 114, N-(6-(5-(((4-tert-butylphenyl)sulfonyl)amino)-6-methyl-3-pyridinyl)-1,3-benzothiazol-2-yl)acetamide] | –
23 | 5.5 nM | 16.9 nM | 9.1 nM | CC(=O)Nc1nc2ccc(-c3cnc(C)c(NS(=O)(=O)c4ccccc4F)c3)cc2s1 [Example 112, N-(6-(5-(((2-fluorophenyl)sulfonyl)amino)-6-methyl-3-pyridinyl)-1,3-benzothiazol-2-yl)acetamide] | –
